Each structure is given as a SMILES string. pIC50: −log10 of the molar value.

The values that follow come from ChEMBL document CHEMBL3585310, “Synthesis and evaluation of artesunateindoloquinoline hybrids as antimalarial drug candidates” (Medchemcomm, 2014).

One series addresses Heme. In words: Binding affinity to heme assessed as inhibition of beta-hematin formation by NP40 detergent based assay.
Series [1] in a line: Selectivity index, ratio of IC50 for rat L6 cells to IC50 for chloroquine-sensitive Plasmodium falciparum NF54. Format: toxicity, cell-based. The note with it: L6 cells (cytotoxicity) versus Plasmodium falciparum NF54, read-out: Ratio IC50.
The nature of series [2]: Selectivity index, ratio of IC50 for rat L6 cells to IC50 for chloroquine-resistant Plasmodium falciparum K1. Format: toxicity, cell-based. The note with it: L6 cells (cytotoxicity) versus Plasmodium falciparum K1, read-out: Ratio IC50.
In series [3] the test system is Plasmodium falciparum. Nature of the series: Resistance index, ratio of IC50 for chloroquine-resistant Plasmodium falciparum K1 to IC50 chloroquine-sensitive Plasmodium falciparum NF54. Format: functional.
In another series the test system is L6. In words: Cytotoxicity against rat L6 cells. Format: cell-based.
Series [4] concerns Plasmodium falciparum. In words: Antiplasmodial activity against chloroquine-sensitive Plasmodium falciparum NF54. Format: functional, organism-based.
In series [5] the test system is Plasmodium falciparum. In words: Antiplasmodial activity against chloroquine-resistant Plasmodium falciparum K1. Format: functional, organism-based.
The subject of series [6] is Plasmodium berghei. Nature of the series: Antimalarial activity against Plasmodium berghei infected in NMRI mouse at 10 mg/kg, ip for 4 consecutive days by FACS analysis. Format: functional.
The subject of series [7] is Plasmodium berghei. Nature of the series: Antimalarial activity against Plasmodium berghei infected in NMRI mouse assessed as survival at 10 mg/kg, ip for 4 consecutive days by FACS analysis. Format: functional.

With `COC(=O)c1ccc2c(c1)c(NCCCN)c1c3ccccc3nc-1n2C`, the pIC50 on Heme is 3.98.
Take `NCCCNc1nc2ccccc2c2[nH]c3ccccc3c12`: the selectivity ratio in series [1] was 45.8; in series [2], 7.6. For the same molecule, the “Ratio IC50” value in the series on Plasmodium falciparum [3] worked out at 6. In addition, the negative-log IC50 (pIC50) on Heme is 3.20.
`C[C@H]1[C@H](OC(=O)CCC(=O)NCCCNc2c3c4ccccc4nc-3n(C)c3ccccc23)O[C@@H]2O[C@@]3(C)CC[C@H]4CCC[C@@H]1[C@]42OO3`: the pIC50 in the series with L6 was 5.82; in the series with Plasmodium falciparum [4], 9.35; with Plasmodium falciparum [5] it was 9.38; at Heme, 3.65. Moreover, the values for the selectivity ratio in series [1] and in series [2] were 3400 and 3640, respectively. In addition, in the series on Plasmodium falciparum [3], the “Ratio IC50” value came out at 0.93. Besides, the Activity in the series with Plasmodium berghei [6] came to 89.6%. Also, in the series on Plasmodium berghei [7], the MSD was determined as 7.7 days.
Consider `C[C@H]1[C@H](OC(=O)CCC(=O)NCC(C)(C)CNc2c3c4ccccc4nc-3n(C)c3ccccc23)O[C@@H]2O[C@@]3(C)CC[C@H]4CCC[C@@H]1[C@]42OO3`, for which the pIC50 in the series on L6 was 5.53; with Plasmodium falciparum [4], 8.94; in the series with Plasmodium falciparum [5], 9.03; on Heme, 4.15. For the same molecule, the selectivity ratio in series [1] came to 2600; in [2] it was 3180. Besides, the “Ratio IC50” value in the series with Plasmodium falciparum [3] amounted to 0.82.
Turning to `C[C@H]1[C@H](OC(=O)CCC(=O)NCC(C)(C)CNc2c3c4ccccc4nc-3n(C)c3ccc(Cl)cc23)O[C@@H]2O[C@@]3(C)CC[C@H]4CCC[C@@H]1[C@]42OO3`, the negative-log IC50 (pIC50) in the series on L6 is 5.89; with Plasmodium falciparum [4], 8.82; with Plasmodium falciparum [5], 9.39; at Heme, 4.42. For the same molecule, the selectivity ratio worked out at 856 in series [1] and 3130 in series [2]. Also, the “Ratio IC50” value in the series on Plasmodium falciparum [3] came out at 0.27.
For the molecule `C[C@H]1[C@H](OC(=O)CCC(=O)NCC(C)(C)CNc2c3c4ccccc4nc-3n(C)c3ccc(Br)cc23)O[C@@H]2O[C@@]3(C)CC[C@H]4CCC[C@@H]1[C@]42OO3`, the pIC50 with L6 was 6.00; in the series on Plasmodium falciparum [4] it was 8.49; in the series on Plasmodium falciparum [5], 9.02; on Heme, 4.54. For the same molecule, the selectivity ratio in series [1] turned out to be 309; in [2], 1040. In the series with Plasmodium falciparum [3], the “Ratio IC50” value came to 0.3.
For `COC(=O)c1ccc2c(c1)c(NCCCNC(=O)CCC(=O)O[C@@H]1O[C@@H]3O[C@@]4(C)CC[C@H]5CCC[C@@H]([C@H]1C)[C@]53OO4)c1c3ccccc3nc-1n2C`, the pIC50 in the series with L6 is 5.43; in the series with Plasmodium falciparum [4], 8.54; in the series with Plasmodium falciparum [5], 9.00; on Heme, 4.53. For the same molecule, the selectivity ratio in series [1] amounted to 1290; in series [2] it was 3720. For the same molecule, in the series with Plasmodium falciparum [3], the “Ratio IC50” value was 0.35.
For `COC(=O)c1ccc2c(c1)c(NCC(C)(C)CNC(=O)CCC(=O)O[C@@H]1O[C@@H]3O[C@@]4(C)CC[C@H]5CCC[C@@H]([C@H]1C)[C@]53OO4)c1c3ccccc3nc-1n2C`, the pIC50 was 6.16 in the series with L6, 8.50 in the series with Plasmodium falciparum [4], 8.94 in the series with Plasmodium falciparum [5] and 4.59 on Heme. Further, the selectivity ratio in series [1] is 219; in [2], 604. Further, in the series with Plasmodium falciparum [3], the “Ratio IC50” value was found to be 0.36.
On to `COC(=O)c1ccc2c(c1)c(NCC(O)CNC(=O)CCC(=O)O[C@@H]1O[C@@H]3O[C@@]4(C)CC[C@H]5CCC[C@@H]([C@H]1C)[C@]53OO4)c1c3ccccc3nc-1n2C` (stereo partly drawn), for which the negative-log IC50 (pIC50) in the series with L6 was 5.91; in the series on Plasmodium falciparum [4] it was 8.83; with Plasmodium falciparum [5], 9.40; at Heme, 4.38. For the same molecule, the selectivity ratio is 826 in series [1] and 3060 in series [2]. Moreover, the “Ratio IC50” value in the series with Plasmodium falciparum [3] stood at 0.27.
For the molecule `C[C@H]1[C@H](OC(=O)CCC(=O)NCCCNc2nc3ccccc3c3[nH]c4ccccc4c23)O[C@@H]2O[C@@]3(C)CC[C@H]4[C@H](C)CC[C@@H]1[C@@]24OO3`, the pIC50 with L6 is 5.66; in the series with Plasmodium falciparum [4] it was 8.78; with Plasmodium falciparum [5], 9.17; at Heme, 4.80. Also, the figures for the selectivity ratio in [1] and in series [2] were 1320 and 3290, respectively. Also, in the series with Plasmodium falciparum [3], the “Ratio IC50” value was 0.4.
Regarding `C[C@H]1[C@H](OC(=O)CCC(=O)NCCCNc2c3ccccc3nc3c2[nH]c2ccccc23)O[C@@H]2O[C@@]3(C)CC[C@H]4[C@H](C)CC[C@@H]1[C@@]24OO3`, the pIC50 with L6 was 5.58; with Plasmodium falciparum [4], 7.91; at Heme, 4.77. The selectivity ratio in [1] turned out to be 215.
On the same counts, the results for `NCCCNc1c2ccccc2nc2c1[nH]c1ccccc12` are 6.56, 7.76, 4.77 and 16.
Take `C[C@@H]1CC[C@H]2[C@@H](C)C(=O)O[C@@H]3O[C@@]4(C)CC[C@@H]1[C@]32OO4` [ARTEMISININ]: the results for the pIC50 in the series on Plasmodium falciparum [4] and in the series on Plasmodium falciparum [5] were 8.37 and 8.55, respectively.
